Where no end group is shown, it is not given here.
How the values were obtained:
MEC-1 cells = assay type: cell-based; details: for cell-death induction activity, in words: compared with N-Ter-Antp
Method: (§1) MEC-1, MO1043 and T-Rex-293 cells were grown in DMEM supplemented with 10% FCS, 2 mM L-glutamine, 1000 U/ml penicillin and 1 mg/ml streptomycin, U-87, C6 and PC3 were maintained in RPMI 1640 supplemented with 10-20% FCS, 2 mM L-glutamine, 1000 U/ml penicillin and 1 mg/ml streptomycin. All cells were maintained in a humidified atmosphere with 5% CO2 at 37° C.
(§2) PBMCs (4×10^5 or 8×10^5 cells/sample) were incubated in 200 μl serum-free medium with the examined peptide for 90 min at room temperature and centrifuged (500×g, 5 min) Cell death was analyzed by PI staining and flow cytometer (Beckton-Dickinson) and BD Cell Quest Pro software. Apoptotic cell death was also analyzed by PI and annexin V-FITC staining (Zaid H et al. 2005. 12:751-760), and by acridine orange and ethidium bromide staining and confocal microscopy (Olympus 1×81).
(§3) To optimize the VDAC1 N-terminal derived peptides with respect to stability, length and specific targeting to cancer cells, several versions of these peptides were designed and tested for their efficacy in inducing the death of CLL-derived lymphocytes and MEC-1 cells (Table 3). Cells were incubated for 90 min with increasing concentrations of the indicated peptide and death was analyzed by PI stating and FACS as described hereinabove. As is clearly shown in FIG. 1 (and Table 3), deleting 6 residues from the C-terminus of the peptide, including the GXXXG motif, yielded a non-active peptide (peptide Δ(21-26) N-Ter-Antp, SEQ ID NO:22).

CLL-derived lymphocytes = test: Cell death of CLL-derived lymphocytes (PBMCs of CLL patients), PI staining and FACS; assay type: cell-based, human; details: 90 min incubation, PI staining, FACS, read-out: IC50, induction of cell death, CLL
Method: PBMCs were isolated from venous blood of the CLL patients by Ficoll-Paque PLUS (GE Healthcare, Israel) density gradient centrifugation, as follows. Venous blood (10-20 ml) was drawn from CLL patients with satisfying diagnostic criteria for CLL or from normal adult donors. Blood was collected into heparin tubes and was diluted 1:1 with balance solution composed of two stock solutions, A (1% D-glucose, 50 mM CaCl2, 0.98 mM MgCl2, 5.4 mM KCl and 0.145 M Tris-HCl, pH 7.6) and B (0.14 M NaCl) in a 1:9 ratio. The resulting mix was carefully layered on Ficoll-Paque Plus (10 ml of diluted blood:15 ml Ficoll) in 50 ml conical tubes. The tubes were centrifuged at 400×g (with minimal acceleration and deceleration) and 18-20° C. for 40 min. […] Cells were counted by a Countess Automated Cell Counter (Invitrogen).
as §2, with “1×81). […]” for “1×81).”

MO1043 cells = test: Cell death of MO1043 cells, PI staining and FACS; assay type: cell-based, human; details: compared with N-Ter-Antp
Method: as §1, §2
as §3, with “As is clearly shown in FIG. 1 (and Table 3), deleting 6 residues from the C-terminus of the peptide, including the GXXXG motif, yielded a non-active peptide (peptide Δ(21-26) N-Ter-Antp, SEQ ID NO:22).” left out

Sequence	cell-death induction activity, in words (MEC-1 cells)	also measured
GKSARDVFTKGYGFGLRQIKIWFQNRRMKWKK [Δ(1-10) N-Ter-Antp, GKSARDVFTKGYGFGL RQIKIWFQNRRMKWKK]	did not significantly modified the cell-death induction activity	
MAVPPTYADLGKSARDVFTKGYGFGLRQIKIWFQNRRMKWKK [N-Ter-Antp, reference compound]		IC50 (CLL-derived lymphocytes): 3.2 ± 0.5 µM; IC50 (MEC-1 cells; 90 min incubation, serum-free medium, PI staining, FACS, read-out: IC50, induction of cell death, MEC-1): 4.2 ± 0.2 µM
MAVPPTYADLGKSARDVFTKRQIKIWFQNRRMKWKK [Δ(21-26) N-Ter-Antp]	non-active	
PTYADLGKSARDVFTKGYGFGLRQIKIWFQNRRMKWKK [Δ(1-4) N-Ter-Antp]	did not significantly modified the cell-death induction activity	
RDVFTKGYGFGLRQIKIWFQNRRMKWKK [Δ(1-14) N-Ter-Antp, RDVFTKGYGFGL RQIKIWFQNRRMKWKK]	more active	
TKGYGFGL RQIKIWFQNRRMKWKK (TKGYGFGLRQIKIWFQNRRMKWKK) [Δ(1-18) N-Ter-Antp]		cell-death induction activity, in words (MO1043 cells): more active

Reference: patent US9758559B2, “Short peptides derived from VDAC1, compositions and methods of use thereof” (B.G. NEGEV TECHNOLOGIES AND APPLICATIONS LTD., AT …, priority 2013, dated 2017)
